# Assay results from a melting point compilation (Tetko et al.; mined from patent text by program, amines drawn as free bases though some values may be those of a salt).
row,SMILES,melting point [°C]
1,CNc1nc(C)c(-c2nc3ccccc3c(=O)n2-c2ccccc2C)s1,218 to 220
2,CC(C)c1cccc(C(C)C)c1NC(=O)NCC1c2ccccc2-c2ccccc21,217 to 218
3,O=C(CCl)Nc1ccc(OCc2nc3ccccc3s2)cc1,196 to 197
4,CC(=O)NC1CCN(c2ccc(C#N)c3ccccc23)C1 (stereo not given),154 to 155
5,CCN(CC)C(C)COc1ccc(NC(=O)C#Cc2ccc(Cl)cc2Cl)cc1 (stereo not given),70 to 72
6,COc1ccc(C(=O)CCCCCBr)cc1F,47 to 48
7,CCc1cccc(C)c1CNc1cc(CNC)cn2nc(C)nc12,179
8,CCC(CC)c1ccc(C(=O)OC)c2nc(Oc3c(C)cc(Cl)cc3Cl)n(C)c12,177 to 178
9,COCc1nc2c(OC)c3c(=O)n(C)c(COC)nc3c(OC)c2c(=O)n1C,223 to 224
10,O=C(O)C1Cc2ccccc2N1S(=O)(=O)c1ccc(-c2ccc(F)cc2F)cc1 (stereo not given),88 to 92
11,CC(=O)CC(=O)Nc1ccc(N)c([N+](=O)[O-])c1,146 to 147
12,COc1ccc2c(-c3ccccc3)c([N+](=O)[O-])oc2c1,100 to 106
13,COc1ccc(-c2ccncc2)cc1-c1ccc2nonc2c1,187 to 192
14,COc1ccc(-c2nc3n(c2-c2cccnc2)CCC3)cc1,164 to 165
15,COc1c(Cl)cc(N)cc1Cl,80 to 81
16,COC(=O)C(Cc1cc(OC)cc(OC)c1)c1ccc(Oc2ccc(CC3SC(=O)NC3=O)cc2)cc1 (stereo not given),125 to 128
17,O=c1[nH]ncc2c1c(O)nc1ccc(Cl)c(Cl)c12,270
18,Cc1cc2nc(NC(=O)NCCN3CCOCC3)sc2cc1OC(C)c1c(Cl)ccc(F)c1Cl (stereo not given),270 to 276
19,O=C(O)CCc1nnc2c(=O)[nH]c3cc(C(F)(F)F)ccc3n12,333
20,CCC(=O)Nc1c(C#N)cnn1-c1ccc(OC(F)(F)F)cc1Cl,127
21,Cc1ccc(C(=O)Cn2c(=O)sc3ccccc32)cc1,168 to 170
22,CCOC(=O)c1[nH]c2cc(Cl)cc(Cl)c2c1N(CC(=O)c1ccccc1)Cc1ccccc1,174 to 175
23,O=C(O)c1ccccc1SC1CCOC1=O (stereo not given),180 to 182
24,Cc1c(C)c(N2C(=O)c3cc(Cl)c(Cl)cc3C2=O)c(C)c2c1OC(C)(C)C2c1ccccc1 (stereo not given),178 to 181
25,CN(C)c1nc(=O)c2cccnc2n1Cc1ccc(F)cc1,167 to 170

row,SMILES,melting point [°C]
1,O=C(c1cccs1)c1cnn2c(-c3cccc(NCc4cccc(Cl)c4)c3)ccnc12,133 to 135
2,O=C(Cn1ccnc1)c1cc(Br)cc2ccccc12,242 to 244
3,C=CCSC(=S)c1cc(C(C)(C)C)c(O)c(C(C)(C)C)c1,93 to 95
4,O=C(O)CCCCCCCCn1nc(-c2ccccc2)c(-c2ccccc2)n1,84 to 85
5,CC(C)[Si](C)(C)CCSCCCNC(=O)n1cc(F)c(=O)[nH]c1=O,122 to 123
6,CCC1(CCCCCBr)C(=O)Nc2cc(F)ccc21 (stereo not given),95 to 96
7,O=c1[nH]c2ccc([N+](=O)[O-])cc2c(=O)n1CCCN1CC=C(c2ccc(Cl)cc2)CC1,205 to 207
8,COC1(OC)C(=O)Nc2ccc(C(=O)c3ccc(Cl)cc3)cc21,170
9,C[C@H](CO)Cn1c2ccccc2c2ccccc21,80 to 81
10,O=C(/C=C/c1ccc(Sc2ccccc2[N+](=O)[O-])c(Cl)c1Cl)N1CCOCC1,210 to 213
11,COc1cc(CCNc2ncnc3scnc23)ccc1Oc1c(F)cnc(C(F)(F)F)c1F,108 to 112
12,CC(C)(C)c1ccc(S(=O)(=O)N2c3ccccc3C[C@H]2C(=O)NCc2ccc(NCC(=O)O)cc2)cc1,110
13,COc1ccc(N(CC(=O)OC(C)(C)C)C(=O)CNC(=O)Nc2cccc(C)c2)cc1,158
14,COCC(=O)N1CCN(CCc2ccc(-c3cccc(N)n3)cc2)CC1,148 to 150
15,COc1ccc2cnc(=O)[nH]c2c1C1CCCC1,201 to 204
16,CC(C)(C)c1cc(-c2csc(CN3CCOCC3)n2)cc(C(C)(C)C)c1O,137
17,CCCCc1c(Cl)nc(N)nc1-c1ccsc1,154 to 155
18,CCn1nc(C)c2nc(C)nc(NCCO)c21,166 to 168
19,CCOC(=O)CCCSC(=S)NCc1ccc(Cl)cc1,61 to 62
20,COc1ccc2c(c1)N(CCNC(C)=O)CC(c1ccccc1)O2 (stereo not given),153 to 154
21,CC(C)CC(COc1ccc(-c2ccc(C#N)cc2)cc1)N(O)C=O (stereo not given),112 to 113
22,O=Cc1cc(Cl)c(F)cc1O,103 to 104
23,N#Cn1nc(-c2ccccc2)c(=O)cc1Br,152 to 155
24,COc1ccc(CNc2nnc(NCCCO)c3ccc(C#N)cc23)cc1Cl,132 to 135
25,CC[C@H](C)[C@H](Nc1nc(OC)ns1)C(=O)N1CCC[C@H]1C(=O)OC,129 to 130

row,SMILES,melting point [°C]
1,CCc1ccc2c(c1)OC1(O)c3ccccc3C(=O)C21O (stereo not given),168 to 169
2,COC(=O)c1ccc(-c2ccncc2)c(C)c1,70 to 71
3,CCC1N=C(c2ccccc2Cl)c2cc(CCC(=O)OC)sc2-n2c(C)nnc21 (stereo not given),126 to 127
4,C=C1N(CCCC)C(=O)OC12CCN(CCC=C(c1ccc(Cl)cc1)c1ccc(Cl)cc1)CC2,110 to 111
5,NC(=O)c1ccc(O)c(I)c1,90 to 95
6,CCOC(=O)c1c(C(C)C)nc2c(c(C)nn2C)c1-c1ccc(F)cc1,68 to 71
7,COC(=O)c1sc2c(c1N)c1ccccc1c(=O)n2-c1ccccc1Br,214 to 216
8,CNC1=NS(=O)N=C1CCS (stereo not given),191 to 193
9,Cn1nc(-c2ccc(F)cc2F)cc1C(F)(F)F,51
10,O=C(c1ccccc1Cl)c1cc(Cl)ccc1-n1ccnc1,146 to 148
11,CC(=O)OCCc1ccc2c(c1)Cc1ccccc1O2,62 to 64
12,O=C1CCC(N2C(=O)c3ccc(CNC(=O)C4CC4)cc3C2=O)C(=O)N1 (stereo not given),163 to 165
13,CC(Oc1ncn(-c2ccccc2)n1)C(=O)O (stereo not given),140 to 142
14,CCOC(=O)C1(NS(=O)(=O)c2ccc3c(Cl)cnc(Cl)c3c2)CCC1,123 to 125
15,CC12CC(O)C3c4ccccc4C(=O)CC3C1CCC2O (stereo not given),205 to 208
16,CC(C)(CCC(=O)O)C(=O)Oc1cc(Cl)ccc1Oc1ccc(Cl)cc1Cl,125 to 128
17,COc1cccc([C@H]2O[C@H](Cc3nc(=O)o[nH]3)C(=O)N(CC(C)(C)C)c3ccc(Cl)cc32)c1OC,130 to 133
18,CCCn1cc(Cc2ccc(C(=O)NS(=O)(=O)c3ccccc3Br)cc2OC)c2cc(CCC(C)C(=O)N(C)C)ccc21 (stereo not given),96 to 99
19,C[C@H](NC(=O)Nc1cccc(CC(=O)O)c1)C(=O)N1[C@@H](c2ccccc2F)SC[C@H]1C(=O)OC(C)(C)C,110
20,CCN1COc2cc3c(=O)n(CCc4cccc(F)c4)nnc3cc2C1=O,161 to 163
21,NC1(CF)CCCNC1=O (stereo not given),132
22,CCc1c(C(=O)C(N)=O)c2c(OCC(=O)N(C)OCc3ccccc3)cccc2n1Cc1ccccc1,186 to 188
23,CC1(c2ccccc2)OCC(=O)N(CCCN2C(=O)c3ccccc3C2=O)c2ccc(Cl)cc21 (stereo not given),151 to 153
24,CNc1nc(-c2ccccc2)c(-c2nc3ccccc3c(=O)n2-c2ccc(C(C)=O)cc2)s1,239 to 240
25,O=C(O)c1oc(-c2ccccc2)cc(=O)c1Cl,250

row,SMILES,melting point [°C]
1,Cc1[nH]c(=O)[nH]c1C(=O)c1ccc(N2CCCCC2)cc1,260 to 263
2,Cc1cn(NCCCc2ccncc2F)c2ccc(OCc3ccccc3)cc12,94 to 96
3,COc1ccc2c(c1)CCC1CC(=O)N(c3ccccn3)N=C21 (stereo not given),194 to 196
4,CCN(CC)C(=O)C(C)Cc1cc(-c2ccccc2)cc2ccccc12 (stereo not given),70
5,Cc1ccc(-c2ccc(C(=O)CCC(=O)O)cc2)cc1,183 to 186
6,Cc1ccc(C(=O)C2=C(O)C(=O)N(c3ncc(S(=O)(=O)c4ccc([N+](=O)[O-])cc4)s3)C2c2ccc(C(=O)N(C)C)cc2)cc1 (stereo not given),205
7,CC(C(=O)C(O)C1OC(n2cc(F)c(=O)[nH]c2=O)C(O)C1O)c1ccccc1 (mixture of isomers),133 to 134
8,C=C[C@]1(C)C(=O)N(C)[C@H](C(C)(C)C)N1C(=O)c1ccccc1,117 to 118
9,CCCCCC1CCC(c2ccc3c(c2F)C(F)(F)Oc2c-3ccc(OCCCC)c2F)CC1 (stereo not given),99
10,CCCN(CCC)C(=O)CC1CN(Cc2ccccc2)c2ccc(OC(=O)Nc3ccc(C(C)C)cc3)cc21 (stereo not given),157 to 161
11,CCCCOc1cc(C(=O)O)cc(N)c1C(=O)c1ccccc1,202 to 204
12,C=CCN1CC(C)N(C(c2cccnc2)c2cccc(O)c2)CC1C (stereo not given),115 to 118
13,CSc1ncc(C(C)c2cccnc2)c(=O)[nH]1 (stereo not given),201 to 204
14,C=CCOc1cc2oc(=O)ccc2cc1C,124 to 125
15,CCOc1ccc(-c2ccc3c(c2)C=C(C(=O)Nc2ccc(CN(C)C4CCOCC4)cc2)CCO3)cc1,174 to 176
16,COc1cc2c(cc1CCNC(=O)Cc1ccc(OC)c(OC)c1)CCC2,115
17,CCOC(=O)CC(NC(=O)C(C)C)C(=O)c1ccco1 (stereo not given),65 to 67
18,COc1ccccc1-c1ccc(-c2ccc(C(=O)O)cc2)cc1-c1ccc2c(c1)C(C)(C)CCC2(C)C,133 to 136
19,CCCCCC(=O)NC(=O)N1CC1C#N (stereo not given),143 to 144
20,CN1CCCC1CNC(=O)c1cc(S(N)(=O)=O)cc2c1OCCO2 (stereo not given),187 to 188
21,CCOC(=O)c1nnc(-c2cc3cc(Oc4ccc(S(C)(=O)=O)cc4)cc(OCc4ccccc4)c3[nH]2)s1,194 to 195
22,CCN1Cc2nc(CO)cn2-c2ccccc21,160 to 165
23,CN(C)CCCCCCOc1ccc(CC(=O)c2ccccc2)cc1,53 to 54
24,CC1CC(=O)Oc2cc(O)ccc21 (stereo not given),109 to 110
25,O[C@@H](CNCC1CCN(CCC(F)(F)F)CC1)COc1ccc(Br)c2[nH]c3ccccc3c12,79
